Source: US9884065B2, “Inhibiting activity of senescent cells using a glucocorticoid” (Buck Institute for Research on Aging, priority 2011, dated 2018)

Experiments:
[1] = test system: K-Ras induced lung tumors; test: K-Ras mediated lung tumorigenesis in INK-ATTAC:K-RasLA1 mice; format: in vivo, mouse; parameters: dose or concentration left out as unconfirmed; details: INK-ATTAC3:K-RasLA1 and INK-ATTAC5:K-RasLA1 mice, from three weeks of age; 21 days after treatment
Text: Briefly, INK-ATTAC (p16^Ink4a apoptosis through targeted activation of caspase) transgenic mice have an FK506-binding protein (FKBP)-caspase 8 (Casp8) fusion polypeptide under the control of the p16^Ink4a promoter (see FIG. 10 providing a vector sequence for the transgene and FIG. 11 providing sequences for components of the transgene including the promoter sequence). In the presence of AP20187, a synthetic drug that induces dimerization of a membrane bound myristoylated FKBP-Casp8 fusion protein, senescent cells specifically expressing the FKBP-Casp8 fusion protein via the p16^Ink4a promoter undergo programmed cell death (apoptosis) (see, e.g., Baker, Nature, supra, FIG. 1 therein). Two founder lines (INK-ATTAC^3 and INK-ATTAC^5) were each bred with the K-rasLA1 tumor model. […]
Two INK-ATTAC:K-RasLA1 were produced (one for INK-ATTAC line 3 and one for line 5). […] Twenty one days after treatment, the mice were sacrificed and tumor multiplicity in lungs was measured. […] In addition, metastasis and overall survival will be monitored after tumor induction in the presence or absence of p16-positive cells.

IL-6 = test: Initial drug screen (Prestwick Chemical Library), IL-6 ELISA of medium; format: cell-based, human; details: 2.5 μM, 48 hours, HCA2 fibroblasts, 0.2% serum
Description: The initial drug screen was performed in a 96-well format using automated liquid handling with a Biomek FX (Beckman Coulter, CA). Senescent cells were plated 24 hours after X-irradiation at 7,500 cells per well in 96-well plates. Six days after plating the senescent cells, the pre-senescent cells were plated at 7,500 cells per well in 96-well plates. Twenty-four hours after pre-senescent plating, both pre-senescent and senescent cells were washed and incubated in low (0.2%) serum for 48 hours to arrest cell proliferation of the pre-senescent cells. […] Forty-eight hours after compound addition, the medium in each well was removed and frozen for assay by ELISA to quantitate the levels of IL-6. The cells, which remained in the wells after the medium was removed, were lysed and ATP levels were measured (ATPlite 1-step assay, Perkin Elmer, MA) to exclude compounds that lowered IL-6 through toxicity (cell death). Experimental wells in each plate were normalized to plate mean or same-plate DMSO controls for the ELISA and ATP assays, respectively.
To identify small molecules that may be potential SASP modulators, a screening strategy that entailed administering compounds to parallel 96-well plates containing human fibroblasts (strain HCA2) that were either quiescent or senescent was developed. […] After 48 hours, the medium from each well was removed, and the cells were lysed. […] Cell lysates were assayed for ATP as a surrogate for cell number.

HCA2 human fibroblasts = details: 2.5 μM, 48 hours
Description: The initial drug screen was performed in a 96-well format using automated liquid handling with a Biomek FX (Beckman Coulter, CA). Senescent cells were plated 24 hours after X-irradiation at 7,500 cells per well in 96-well plates. Six days after plating the senescent cells, the pre-senescent cells were plated at 7,500 cells per well in 96-well plates. Twenty-four hours after pre-senescent plating, both pre-senescent and senescent cells were washed and incubated in low (0.2%) serum for 48 hours to arrest cell proliferation of the pre-senescent cells. Drugs from the Prestwick Chemical Library, which contains 1120 bio-available compounds in DMSO, were given to the cells at 2.5 μM in media containing 0.2% serum. Forty-eight hours after compound addition, the medium in each well was removed and frozen for assay by ELISA to quantitate the levels of IL-6. The cells, which remained in the wells after the medium was removed, were lysed and ATP levels were measured (ATPlite 1-step assay, Perkin Elmer, MA) to exclude compounds that lowered IL-6 through toxicity (cell death). Experimental wells in each plate were normalized to plate mean or same-plate DMSO controls for the ELISA and ATP assays, respectively.
To identify small molecules that may be potential SASP modulators, a screening strategy that entailed administering compounds to parallel 96-well plates containing human fibroblasts (strain HCA2) that were either quiescent or senescent was developed. The compounds tested comprised the Prestwick Chemical Library, a collection of approximately 1,120 Federal Drug Administration-approved drugs. The compounds were added to duplicate wells at a single concentration (2.5 μM). After 48 hours, the medium from each well was removed, and the cells were lysed. […] Cell lysates were assayed for ATP as a surrogate for cell number.

SASP = test: Multiplex ELISA of conditioned media from irradiated IMR90 fibroblasts (50 cytokines and growth factors); format: cell-based, human; details: 10 μM apigenin immediately after irradiation, analyzed 6 days later; less than 2 fold not considered significant
Description: To determine whether or to what extent apigenin suppressed the entire SASP, multiplex ELISA was used to interrogate the relative secretion of 50 cytokines and growth factors. IMR90 fibroblasts were treated with 10 μM apigenin or DMSO immediately after irradiation and analyzed 6 days later. Cells were washed and incubated in serum-free media without apigenin to generate conditioned media. Conditioned media from […], apigenin- or DMSO-treated irradiated IMR90 cells and control (mock-irradiated, DMSO-treated) cells were analyzed by ELISA for various SASP factors (FIG. 19).

Compound | tumor multiplicity in lungs (tumor numbers) [1] | IL-6 secretion (ELISA) (IL-6) | ATP levels (HCA2 human fibroblasts) | secretion of SASP factors (fold difference over control) (SASP)
CC[C@H](C(=O)N1CCCC[C@H]1C(=O)O[C@H](CCc1ccc(OC)c(OC)c1)c1cccc(OCC(=O)NCC(CNC(=O)COc2cccc([C@@H](CCc3ccc(OC)c(OC)c3)OC(=O)[C@@H]3CCCCN3C(=O)[C@@H](CC)c3cc(OC)c(OC)c(OC)c3)c2)CN(C)C)c1)c1cc(OC)c(OC)c(OC)c1 [AP20187] | significantly reduced |  |  | 
O=c1cc(-c2ccc(O)cc2)oc2cc(O)cc(O)c12 [apigenin, 4′,5,7-trihydroxyflavone] |  | capable of suppressing IL-6 secretion | without altering ATP levels | suppressed the secretion of several pro-inflammatory cytokines and chemokines, including, for example, TGFA, MCP3, LIF, IFNβ, IL-6, GROA, and IL-2
